What was measured:
[1] = system: Shewanella sp. O23S strain; assay: Minimal inhibitory concentration (MIC) of heavy metals in LB medium; assay type: cell-based; conditions: 24 hours at 22° C., OD600
[2] = system: Shewanella sp. O23S strain; assay: Dissimilatory reduction of 2.5 mM sodium arsenate in the presence of heavy metals; assay type: cell-based; conditions: minimal R1-R2 medium; for Reduction of arsenic in the presence of the metal (maximum concentration of metals allowing for dissimilatory reduction of 2.5 mM sodium arsenate): 5 mM sodium lactate

Structure (SMILES)	MIC value [1]	Reduction of arsenic in the presence of the metal (maximum concentration of metals allowing for dissimilatory reduction of 2.5 mM sodium arsenate) [2]	capability of dissimilatory reduction in the presence of the metal [2]
[Na+].[O]=[V](=[O])[O-] [V(V), NaVO3]	>20 mM	>5 mM	–
O.O.O.O.O.O.O.O.O=S(=O)([O-])[O-].[Cd+2] [Cd(II), CdSO4•8H2O]	1 mM	1 mM	–
O.O.O.O.O.O.O.O=S(=O)([O-])[O-].[Zn+2] [Zn(II), ZnSO4•7H20]	3 mM	2 mM	–
O.O.O.O.O.O.O.O.O.O.O=[Se](=O)([O-])[O-].[Na+].[Na+] [Se(VI), Na2SeO4•10H2O]	>20 mM	5 mM	–
[Fe+3] [Fe(III)]	5 mM	–	not demonstrated
O.O.O.O.O.O.O.O.O.O.O.O.O.O.O.O.O.O.O=S(=O)([O-])[O-].O=S(=O)([O-])[O-].O=S(=O)([O-])[O-].[Cr+3].[Cr+3] [Cr(III), Cr2(SO4)3•18H2O]	5 mM	3 mM	–
O.O.O.O.O.O.O.O=S(=O)([O-])[O-].[Co+2] [Co(II), CoSO4•7H2O]	2 mM	2 mM	–
O.O=S(=O)([O-])[O-].[Mn+2] [Mn(II), MnSO4•H2O]	>20 mM	>5 mM	–
O.O.O.O.O.O=S(=O)([O-])[O-].[Cu+2] [Cu(II), CuSO4•5H2O]	3 mM	2 mM	–

Source: patent publication US9328397B2, “Removal of arsenic using a dissimilatory arsenic reductase” (UNIWERSYTET WARSZAWSKI, priority 2013, dated 2016)
